For data set [1], the target named is T1, Sigma intracellular receptor 2 (Homo sapiens, UniProt Q5BJF2). In words: Displacement of [3H]-DTG from sigma-2 receptor in human Jurkat cell membrane incubated for 1 hr by liquid scintillation counting method. The format is cell membranes. Background: In a radioligand displacement assay an active substance lowers the binding of a labelled ligand.
Data set [2] deals with T2, Sigma non-opioid intracellular receptor 1 (Homo sapiens, UniProt Q99720). The data set is described as follows: Displacement of [3H]-pentazocine from sigma-1 receptor in human Jurkat cell membrane at 100 nM incubated for 2 hr by liquid scintillation counting method relative to control. The format is cell membranes.
Data set [3] concerns the target T2, Sigma non-opioid intracellular receptor 1. The data set is described as follows: Displacement of [3H]-pentazocine from sigma-1 receptor in human Jurkat cell membrane incubated for 2 hr by liquid scintillation counting method. The data set is classed as cell membranes.
A short description of data set [4]: Intrinsic clearance in rat liver microsomes at 10 uM incubated for 1 hr in presence of NADPH by LC-MS/MS analysis. The note with it: read-out: CLH. The data set is classed as ADME, Microsome. (In general: Microsomes from liver hold many membrane-bound enzymes, among them those of drug oxidation.)
Data set [5] in a line: Metabolic stability in human liver microsomes assessed as half-life at 10 uM incubated for 1 hr in presence of NADPH by LC-MS/MS analysis. The format is ADME, Microsome.
Data set [6] is described as follows: Metabolic stability in rat liver microsomes assessed as half-life at 10 uM incubated for 1 hr in presence of NADPH by LC-MS/MS analysis. The format is ADME, Microsome.
A short description of data set [7]: Intrinsic clearance in human liver microsomes at 10 uM incubated for 1 hr in presence of NADPH by LC-MS/MS analysis. The data set is classed as ADME, Microsome. As to conditions: read-out: CLH.
The target of data set [8] is T1, Sigma intracellular receptor 2. In words: Displacement of [3H]-DTG from sigma-2 receptor in human Jurkat cell membrane at 1000 nM incubated for 1 hr by liquid scintillation counting method relative to control. The data set is classed as cell membranes. As to conditions: filed as antagonist.
Data set [9] has as its target Sigma non-opioid intracellular receptor 1 (Cavia porcellus) (UniProt Q60492). In words: Ratio of Ki for displacement of [3H]-(+)-pentazocine from sigma-1 receptor to Ki for displacement of [3H]-(+)-pentazocine from sigma-1 receptor in guinea pig brain membranes in presence of phenytoin. The note with it: Membrane. The format is cell membranes.
The target in data set [10] is T3, Sigma non-opioid intracellular receptor 1 (Cavia porcellus, UniProt Q60492). The data set is described as follows: Displacement of [3H]-(+)-pentazocine from sigma-1 receptor in guinea pig brain membranes incubated for 1 hr by liquid scintillation counting method. The format is cell membranes, Membrane.
Data set [11] concerns the target T3, Sigma non-opioid intracellular receptor 1.
A short description of data set [12]: Displacement of [3H]-DTG from sigma-2 receptor in guinea pig brain membrane incubated for 1 hr by liquid scintillation counting method. The format is cell membranes, Cavia porcellus.
In data set [13] the test system is Rattus norvegicus. The data set is described as follows: Antinociceptive activity in formalin-induced Sprague-Dawley rat model of nociceptive pain assessed as decrease in time spent on licking during late phase at 100 mg/kg, ip administered 30 mins before formalin stimulation and measured at 5 mins interval for 10 to 35 mins. The format is functional, organism-based.

The subject of data set [14] is Rattus norvegicus. The data set is described as follows: Analgesic activity in Sprague-Dawley rat model of paclitaxel-induced neuropathic pain assessed as reduction in cold hyperalgesia by measuring increase in paw withdrawal latency at 100 mg/kg, ip measured at 1 to 2 hrs post dosing by Von Frey assay relative to control. The data set is classed as functional, organism-based. The note with it: time 1-2 hrs.

Data set [15] concerns Rattus norvegicus. In words: Analgesic activity in Sprague-Dawley rat model of paclitaxel-induced neuropathic pain assessed as decrease in mechanical allodynia by measuring reduction in pain threshold at 100 mg/kg, ip measured at 0.5 to 1.5 hrs by Von Frey assay relative to control. The data set is classed as functional, organism-based. The note with it: time 0.5-1.5 hrs.

The nature of data set [16]: Toxicity in Sprague-Dawley rat assessed as effect on motor coordination at 100 mg/kg, ip measured at 60 to 120 mins post treatment by rotarod test. The format is organism-based. The note with it: in vivo, time 60-120 min. A general note: The rotarod test checks motor coordination on a turning rod.

Calls of active or inactive are those of the source.

T3 sequence (Q60492 whole entry): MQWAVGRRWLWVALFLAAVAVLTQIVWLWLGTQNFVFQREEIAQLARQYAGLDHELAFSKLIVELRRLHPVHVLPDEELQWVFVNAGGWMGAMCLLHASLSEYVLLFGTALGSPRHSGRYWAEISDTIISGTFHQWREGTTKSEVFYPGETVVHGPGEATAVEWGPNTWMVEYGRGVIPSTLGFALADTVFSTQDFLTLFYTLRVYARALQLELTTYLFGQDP
T1 sequence (Q5BJF2 whole entry): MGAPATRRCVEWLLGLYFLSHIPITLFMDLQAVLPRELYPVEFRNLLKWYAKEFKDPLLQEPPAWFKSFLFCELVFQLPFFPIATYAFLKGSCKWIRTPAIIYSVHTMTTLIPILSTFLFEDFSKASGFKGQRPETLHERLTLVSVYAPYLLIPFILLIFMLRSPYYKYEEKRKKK
T2 sequence (Q99720 whole entry): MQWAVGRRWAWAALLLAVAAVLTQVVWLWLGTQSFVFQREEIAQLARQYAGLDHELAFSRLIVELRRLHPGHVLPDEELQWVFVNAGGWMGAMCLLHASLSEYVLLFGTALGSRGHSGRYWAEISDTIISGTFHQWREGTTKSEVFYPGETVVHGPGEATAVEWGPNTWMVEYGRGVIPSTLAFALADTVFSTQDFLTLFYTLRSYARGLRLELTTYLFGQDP
Chain of Sigma non-opioid intracellular receptor 1 (Cavia porcellus) (Q60492 whole entry): as the sequence (Q60492 whole entry) above

For the compound `Cn1nc(CN2CCCC2)nc1-c1ccc2c(c1)CCC2`, affinity in data set [1] was put at a Ki of 1000 nM. Further, the Activity in [2] turned out to be 37%.

On to `Cn1nc(CN2CCCC2)nc1-c1ccc2c(c1)CCCC2`, for which the Ki in [3] was determined as 26 nM.

In the case of `Cn1nc(CN2CCCC2)nc1-c1cccc(Oc2ccccc2)c1`, in [1], the inhibition constant Ki was above 1000 nM. Moreover, the Activity in data set [2] came to 21%.

`CC(C)n1nc(CN2CCCC2)nc1-c1ccc(C(C)(C)C)cc1` showed an inhibition constant (Ki) in data set [3] of 2.2 nM.

As for `Cn1nc(CN2CCCC2)nc1-c1ccc(C2(C(F)(F)F)CC2)cc1`, the values for the microsomal CLint at 10 µM in data set [4] and in [7] were 207 µL/min/mg and 4 µL/min/mg, respectively. In addition, the half-life at 10 µM in [5] was 172 min; in [6], 3.3 min.

On to `Cn1nc(CN2CCCC2)nc1-c1ccc(Cl)c(Cl)c1`, for which the microsomal CLint at 10 µM in data set [4] worked out at 135 µL/min/mg; in data set [7], 8.2 µL/min/mg. Besides, the half-life at 10 µM in data set [5] turned out to be 84.7 min; in data set [6] it was 5.1 min.

Take `Cn1nc(CN2CCCC2)nc1-c1ccc(-c2ccc(Cl)c(Cl)c2)c(Cl)c1`: the Activity in [2] (filed as antagonist) came to 43%; in data set [8], 79%.

For `Cn1nc(CN2CCCC2)nc1-c1cccc(C(C)(C)C)c1`, the Ki in [1] is 1000 nM; in data set [3], 29 nM.

Take `O=C(O)Cc1ccccc1Nc1c(Cl)cccc1Cl` [DICLOFENAC]: the microsomal CLint at 10 µM in [4] turned out to be 196 µL/min/mg; in data set [7], 189 µL/min/mg.

`COc1ccc2c(c1)[C@]13CCCC[C@@H]1[C@H](C2)N(C)CC3` [DEXTROMETHORPHAN]: the Ratio Ki in [9] was determined as 6.3. Also, the figures for the Ki in data set [10] and in data set [11] were 63 nM and 10 nM, respectively.

`Cn1nc(CN2CCN(Cc3ccccc3)CC2)nc1-c1ccc(C(C)(C)C)cc1` registered an inhibition constant Ki in data set [12] of 39 nM. This counts as double-digit nanomolar.

As for `Cc1ccc(-c2nc(CN3CCCC3)nn2C)cc1C`, in data set [1], the Ki is above 1000 nM. The compound also showed an Activity in data set [2] of 28%.

As for `Cn1nc(CN2CCCC2)nc1-c1ccc2cc(Cl)sc2c1`, the affinity in [1] corresponds to a Ki of 1000 nM. This lies in the single-digit micromolar range.

`Cn1nc(CN2CCCC2)nc1-c1ccc2ccsc2c1`: the Ki in data set [1] is above 1000 nM; in data set [3], 64 nM.

`Cn1nc(CN2CCCC2)nc1-c1ccc(C2CC2)cc1`: in data set [1], the Ki came out at 1000 nM. This compound came in with an Activity in data set [2] of 30%.

In the case of `Cn1nc(CN2CCCC2)nc1-c1ccc(-c2ccccc2)cc1`, in data set [3], the Ki amounted to 90 nM. The Activity in data set [8] was determined as 60%.

Turning to `Cn1nc(CN2CCCC2)nc1-c1ccc(Oc2ccccc2)cc1`, the Activity in data set [2] came out at 39%; in data set [8], 65%.

Consider `Cc1ccc(-c2nc(CN3CCCC3)nn2C)cc1`, for which the Ki in data set [1] is above 1000 nM. The Activity in [2] amounted to 3%.

`Cc1ncc2n1-c1ccc(Cl)cc1C(c1ccccc1F)=NC2` [MIDAZOLAM]: the microsomal CLint at 10 µM came out at 293 µL/min/mg in [4] and 263 µL/min/mg in data set [7]. The figures for the half-life at 10 µM in [5] and in [6] were 2.6 min and 2.4 min, respectively.

In data set [12], `O=C(CCCN1CCC(O)(c2ccc(Cl)cc2)CC1)c1ccc(F)cc1` [HALOPERIDOL] came in with a Ki of 4.7 nM.

As to `CC(C)c1ccc(-c2nc(CN3CCCC3)nn2C)cc1`, the Ki is 1000 nM in data set [1] and 96 nM in [3].

`Cn1nc(CN2CCN(CCc3ccccc3)CC2)nc1-c1ccc(C(C)(C)C)cc1`: the Ki in data set [1] amounted to 17 nM; in [3], 49 nM; in data set [12], 14 nM; in data set [10] it was 10 nM.

Consider `Cn1nc(CN2CCN(c3ccccc3)CC2)nc1-c1ccc(C(C)(C)C)cc1`, for which the microsomal CLint at 10 µM stood at 29.8 µL/min/mg in data set [4] and 18.6 µL/min/mg in [7]. In addition, the half-life at 10 µM came to 37.3 min in data set [5] and 23.3 min in data set [6]. In addition, the Ki in data set [12] was above 1000 nM; in [10] it was 14 nM.

`Cn1nc(CN2CCC(Cc3ccccc3)CC2)nc1-c1ccc(C(C)(C)C)cc1` registered an inhibition constant Ki in [12] of 57 nM.

In the case of `Cn1nc(CN2CCCC2)nc1-c1cccc(-c2ccccc2)c1`, the affinity in data set [1] corresponds to a Ki of 1000 nM. The Activity in [2] (filed as antagonist) stood at 40%.

As for `Cn1nc(CN2CCCC2)nc1-c1cccc(C2(C(F)(F)F)CC2)c1`, the microsomal CLint at 10 µM was found to be 144 µL/min/mg in [4] and 7.9 µL/min/mg in data set [7]. For the same compound, the half-life at 10 µM in data set [5] was found to be 87.6 min; in data set [6], 4.8 min.

Consider `Cn1nc(CN2CCCC2)nc1-c1ccc(C2CCCCC2)cc1`, for which the Ki in data set [3] came to 20 nM. For the same compound, the Activity in [8] amounted to 89%.

For the compound `Cn1nc(CN2CCCC2)nc1-c1ccc(Cl)cc1`, the inhibition constant (Ki) in [1] was above 1000 nM. In addition, the Activity in data set [2] amounted to 31%.

With `CN1CCN(Cc2nc(-c3ccc(C(C)(C)C)cc3)n(C)n2)CC1`, in [12], the Ki is above 1000 nM.

`Cn1nc(CN2CCOCC2)nc1-c1ccc(C(C)(C)C)cc1` gave a Ki in data set [12] above 1000 nM.

Consider `Cc1cc(OCCN2CCOCC2)nn1-c1ccc2ccccc2c1`, for which the microsomal CLint at 10 µM in [4] was determined as 190 µL/min/mg; in [7], 10.7 µL/min/mg. In addition, the half-life at 10 µM in data set [5] was 64.6 min; in [6], 3.6 min. Also, the Ki was above 1000 nM in data set [12] and 3 nM in data set [10].

As for `NCC1(CC(=O)O)CCCCC1` [GABAPENTIN], the result in the data set with Rattus norvegicus [13] and in the data set on Rattus norvegicus [15] was Active. In addition, in the data set with Rattus norvegicus [14], the result was inactive. Moreover, the Activity entry in data set [16] is “Toxic”.

For `Cc1cc(-c2nc(CN3CCCC3)nn2C)ccc1C(F)(F)F`, the microsomal CLint at 10 µM in data set [4] turned out to be 263 µL/min/mg; in data set [7], 9.3 µL/min/mg. The half-life at 10 µM in [5] came to 74.9 min; in data set [6], 2.6 min.

As for `Cn1nc(CN2CCCCC2)nc1-c1ccc(C(C)(C)C)cc1`, the inhibitory constant (Ki) in data set [12] amounted to 441 nM.

On to `Cn1nc(CN2CCCC2)nc1-c1ccc(C(F)(F)F)cc1`, for which the Ki in [1] was above 1000 nM; in data set [3], 82 nM.

Consider `CN(Cc1nc(-c2ccc(C(C)(C)C)cc2)n(C)n1)CC1CC1`, for which the microsomal CLint at 10 µM is 196 µL/min/mg in data set [4] and 11.3 µL/min/mg in [7]. Besides, the half-life at 10 µM was determined as 61.3 min in data set [5] and 3.5 min in data set [6]. In addition, the inhibition constant (Ki) in [12] stood at 324 nM.

What is called Ki is a dissociation constant, usually derived from enzyme kinetics or from competition with a known ligand. A high value points to a looser hold on the target. In general, half-life refers to how long it takes for the measured level to halve.

For the origin of these results see ChEMBL document CHEMBL4765482, “Novel Sigma 1 Receptor Antagonists as Potential Therapeutics for Pain Management” (J Med Chem, 2021).
